Experimental data from ChEMBL document CHEMBL1938343, “Lead optimisation of selective non-zinc binding inhibitors of MMP13. Part 2” (Bioorg Med Chem Lett, 2012).

Legend:
[1] = molecular target: T1, A disintegrin and metalloproteinase with thrombospondin motifs 4 (Homo sapiens) (UniProt O75173); experiment: Inhibition of ADAM-TS4 using dimethoxyfluorescein-Ser-Pro-Leu-Ala-Gln-Ala- Val-Arg-ser-Ser-Arg-Cys-fluorescein as substrate
T1 sequence (whole entry): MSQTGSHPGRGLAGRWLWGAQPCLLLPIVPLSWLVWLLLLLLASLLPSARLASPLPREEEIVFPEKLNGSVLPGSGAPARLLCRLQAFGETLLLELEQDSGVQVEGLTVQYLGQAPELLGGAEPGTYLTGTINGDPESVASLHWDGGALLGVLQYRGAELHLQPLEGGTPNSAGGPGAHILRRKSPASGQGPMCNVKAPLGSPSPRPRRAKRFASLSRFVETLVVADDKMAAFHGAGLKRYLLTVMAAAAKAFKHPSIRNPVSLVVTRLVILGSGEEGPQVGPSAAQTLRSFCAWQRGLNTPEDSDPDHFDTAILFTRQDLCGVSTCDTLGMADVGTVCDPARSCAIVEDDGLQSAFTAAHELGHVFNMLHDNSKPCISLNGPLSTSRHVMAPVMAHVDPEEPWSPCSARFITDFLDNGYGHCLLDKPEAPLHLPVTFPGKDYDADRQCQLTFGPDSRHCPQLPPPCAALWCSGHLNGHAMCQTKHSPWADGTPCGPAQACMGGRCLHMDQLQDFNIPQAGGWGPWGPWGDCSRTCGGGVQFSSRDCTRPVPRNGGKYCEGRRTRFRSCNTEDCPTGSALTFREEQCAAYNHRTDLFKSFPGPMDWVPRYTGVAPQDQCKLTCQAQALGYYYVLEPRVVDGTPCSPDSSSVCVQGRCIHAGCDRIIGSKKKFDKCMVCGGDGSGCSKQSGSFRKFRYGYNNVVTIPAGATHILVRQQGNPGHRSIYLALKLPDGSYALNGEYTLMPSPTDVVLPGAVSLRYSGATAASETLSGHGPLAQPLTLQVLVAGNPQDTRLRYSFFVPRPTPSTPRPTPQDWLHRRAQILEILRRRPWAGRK

[2] = Intrinsic clearance in Sprague-Dawley rat hepatocytes assessed per 10^6 cells; assay type: ADME, cell-based, Hepatocyte; settings: Sprague-Dawley, read-out: CLH
[3] = Oral bioavailability in rat; assay type: ADME, organism-based; settings: in vivo
[4] = Volume of distribution at steady state in dog at 1 mg/kg, iv and 1 mg/kg, po; assay type: ADME, organism-based, Canis lupus familiaris; settings: in vivo, read-out: Vdss
[5] = Cytotoxicity in mouse spleen macrophages assessed as phospholipidosis; settings: Macrophage
[6] = Fraction unbound in dog; assay type: ADME, organism-based, Canis lupus familiaris; settings: in vivo
[7] = Fraction unbound in rat; assay type: ADME, organism-based; settings: in vivo
[8] = Intrinsic clearance in human hepatocytes assessed per 10^6 cells; assay type: ADME, cell-based, Hepatocyte; settings: read-out: CLH
[9] = Renal elimination in rat at 2 mg/kg, iv; assay type: ADME, organism-based; parameters: dose 2 mg/kg, route intravenous; settings: urine, read-out: Ae
[10] = Volume of distribution at steady state in rat at 2 mg/kg, iv; assay type: ADME, organism-based; parameters: dose 2 mg/kg, route intravenous; settings: in vivo, read-out: Vdss
[11] = molecular target: Matrix metalloproteinase-14 (Homo sapiens, UniProt P50281); experiment: Inhibition of MMP14 using Mca-Pro-cyclohexyl-Ala-Gly-Nva-His-Ala- Dap(Dnp)-NH2 as substrate by fluorometric analysis
[12] = Thermodynamic solubility of the compound; settings: Therm_solubility
[13] = Half life in dog at 1 mg/kg, iv and 1 mg/kg, po; assay type: ADME, organism-based, Canis lupus familiaris; settings: in vivo
[14] = Intrinsic clearance in human microsomes; assay type: ADME, Microsome
[15] = Apparent permeability across basolateral to apical side in human Caco2 cells at 10 uM; assay type: ADME, cell-based; settings: Caco-2
[16] = molecular target: Macrophage metalloelastase (Homo sapiens, UniProt P39900); experiment: Inhibition of MMP12 using Mca-Pro-cyclohexyl-Ala-Gly-Nva-His-Ala- Dap(Dnp)-NH2 as substrate by fluorometric analysis
Macrophage metalloelastase, sequence (P39900 whole entry): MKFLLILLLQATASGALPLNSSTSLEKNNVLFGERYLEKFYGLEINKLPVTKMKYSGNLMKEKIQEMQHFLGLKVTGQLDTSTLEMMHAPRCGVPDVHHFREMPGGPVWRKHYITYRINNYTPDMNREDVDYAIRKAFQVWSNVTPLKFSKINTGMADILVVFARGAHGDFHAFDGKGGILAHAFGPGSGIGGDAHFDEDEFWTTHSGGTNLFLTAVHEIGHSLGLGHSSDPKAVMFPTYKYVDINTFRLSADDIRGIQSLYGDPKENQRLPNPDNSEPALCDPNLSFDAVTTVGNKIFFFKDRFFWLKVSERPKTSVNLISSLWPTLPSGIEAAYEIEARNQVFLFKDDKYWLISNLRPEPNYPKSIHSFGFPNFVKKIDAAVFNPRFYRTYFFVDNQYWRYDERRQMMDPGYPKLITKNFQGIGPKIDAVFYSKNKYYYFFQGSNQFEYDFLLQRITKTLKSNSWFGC

Collagenase 3 = Collagenase 3 (Homo sapiens, UniProt P45452); experiment: Inhibition of recombinant human MMP13 using Mca-Pro-cyclohexyl-Ala-Gly-Nva-His-Ala- Dap(Dnp)-NH2 as substrate by fluorometric analysis; settings: read-out: IC50
[17] = Apparent permeability across apical to basolateral side in human Caco2 cells at 10 uM; assay type: ADME, cell-based; settings: Caco-2
[18] = molecular target: 72 kDa type IV collagenase (Homo sapiens, UniProt P08253); experiment: Inhibition of MMP2 using Mca-Pro-cyclohexyl-Ala-Gly-Nva-His-Ala- Dap(Dnp)-NH2 as substrate by fluorometric analysis; settings: read-out: IC50
72 kDa type IV collagenase, sequence (P08253 whole entry): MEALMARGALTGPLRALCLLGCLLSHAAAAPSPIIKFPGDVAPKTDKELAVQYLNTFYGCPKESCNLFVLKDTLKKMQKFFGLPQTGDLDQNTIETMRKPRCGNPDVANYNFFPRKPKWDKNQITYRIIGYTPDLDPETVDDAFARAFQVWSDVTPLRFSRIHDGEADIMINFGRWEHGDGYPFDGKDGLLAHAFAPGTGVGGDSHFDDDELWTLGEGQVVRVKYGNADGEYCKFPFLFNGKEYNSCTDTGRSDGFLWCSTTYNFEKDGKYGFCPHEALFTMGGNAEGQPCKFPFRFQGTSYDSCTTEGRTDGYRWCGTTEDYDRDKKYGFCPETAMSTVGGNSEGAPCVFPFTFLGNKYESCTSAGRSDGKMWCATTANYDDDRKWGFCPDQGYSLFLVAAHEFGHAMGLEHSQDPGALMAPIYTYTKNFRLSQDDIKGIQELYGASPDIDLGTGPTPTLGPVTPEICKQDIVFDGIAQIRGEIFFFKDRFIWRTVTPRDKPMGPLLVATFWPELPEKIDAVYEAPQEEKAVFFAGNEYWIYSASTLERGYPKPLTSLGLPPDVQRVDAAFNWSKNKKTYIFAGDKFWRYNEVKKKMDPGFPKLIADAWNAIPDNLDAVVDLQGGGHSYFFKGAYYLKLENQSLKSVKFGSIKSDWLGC

[19] = Oral bioavailability in dog; assay type: ADME, organism-based, Canis lupus familiaris; settings: in vivo
[20] = Clearance in dog at 1 mg/kg, iv and 1 mg/kg, po; assay type: ADME, organism-based, Canis lupus familiaris; settings: in vivo
[21] = molecular target: T2, A disintegrin and metalloproteinase with thrombospondin motifs 1 (Homo sapiens) (UniProt Q9UHI8); experiment: Inhibition of ADAM-TS1 dimethoxyfluorescein-Ser-Pro-Leu-Ala-Gln-Ala- Val-Arg-ser-Ser-Arg-Cys-fluorescein
T2 sequence (whole entry): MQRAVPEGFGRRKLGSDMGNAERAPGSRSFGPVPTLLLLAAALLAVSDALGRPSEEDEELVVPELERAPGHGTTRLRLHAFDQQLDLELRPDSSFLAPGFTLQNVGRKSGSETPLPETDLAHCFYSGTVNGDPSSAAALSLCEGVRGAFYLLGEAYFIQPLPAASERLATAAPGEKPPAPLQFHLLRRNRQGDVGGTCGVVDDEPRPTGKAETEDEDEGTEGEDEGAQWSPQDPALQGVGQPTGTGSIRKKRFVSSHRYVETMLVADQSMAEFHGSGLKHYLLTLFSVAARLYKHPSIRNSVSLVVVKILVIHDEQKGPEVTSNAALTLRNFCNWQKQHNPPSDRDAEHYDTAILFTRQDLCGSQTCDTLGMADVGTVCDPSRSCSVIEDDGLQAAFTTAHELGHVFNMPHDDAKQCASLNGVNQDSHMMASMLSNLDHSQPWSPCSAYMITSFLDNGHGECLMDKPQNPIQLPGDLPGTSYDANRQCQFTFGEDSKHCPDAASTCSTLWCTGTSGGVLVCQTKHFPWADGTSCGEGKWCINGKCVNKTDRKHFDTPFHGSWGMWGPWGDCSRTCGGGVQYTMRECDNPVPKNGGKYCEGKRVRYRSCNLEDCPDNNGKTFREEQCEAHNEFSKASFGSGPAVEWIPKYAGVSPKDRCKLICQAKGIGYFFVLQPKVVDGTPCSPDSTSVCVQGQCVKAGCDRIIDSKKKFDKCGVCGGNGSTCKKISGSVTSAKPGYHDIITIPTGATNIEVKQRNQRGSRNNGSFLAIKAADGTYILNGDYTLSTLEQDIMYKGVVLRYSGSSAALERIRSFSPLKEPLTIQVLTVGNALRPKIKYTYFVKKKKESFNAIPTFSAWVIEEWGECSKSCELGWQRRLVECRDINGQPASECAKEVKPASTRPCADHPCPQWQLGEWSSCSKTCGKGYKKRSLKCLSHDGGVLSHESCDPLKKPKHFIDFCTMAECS

[22] = Clearance in rat at 2 mg/kg, iv; assay type: ADME, organism-based; parameters: dose 2 mg/kg, route intravenous; settings: in vivo

## CN1CCC(NC(=O)c2ccc(Oc3ccc(C#C[C@]4(O)CN5CCC4CC5)cc3)cc2)CC1
[1]
  INH: > 10 µM
[2]
  hepatocyte CLint: < 2 µL/min/1e6 cells
[3]
  bioavailability: 2%
[4]
  Vd: 6.6 L/kg
[5]
  EC50: 8 µM
[6]
  fraction unbound: 0.47
[7]
  fraction unbound: 0.73
[8]
  hepatocyte CLint: < 2 µL/min/1e6 cells
[9]
  dose excreted: < 1%
[10]
  Vd: 12.6 L/kg
[11]
  pIC50: < 5
[11]; read-out: IC50
  IC50: > 10 µM
[12]
  solubility thermodynamic: > 2000 µM
[13]
  half-life: 23 h
[14]
  microsomal CLint: 2.6 µL/min/mg
[15]
  Papp B→A at 10 µM: 74 nm/s
[16]; read-out: IC50
  IC50: > 8 µM
[16]; read-out: pIC50 (converted)
  IC50: 7.94 µM
Collagenase 3
  IC50: 0.074 µM
[17]
  Papp A→B at 10 µM: 3 nm/s
[18]
  IC50: 7.3 µM
[19]
  bioavailability: 47%
[20]
  clearance: 0.216 L/h/kg
[21]
  INH: > 100 µM
[22]
  clearance: 0.96 L/h/kg
